The text below walks through data of publication PMC3006138, “Fexinidazole – A New Oral Nitroimidazole Drug Candidate Entering Clinical Development for the Treatment of Sleeping Sickness” (PLoS Neglected Tropical Diseases, 2010).

For one data set, the system named is rat hepatocytes. The data set is described as follows: Hepatocyte intrinsic clearance and metabolite profile. It counts as in vitro ADME. Conditions: fexinidazole 10 µM. The method, then:
Fexinidazole was incubated with cryopreserved hepatocytes from male CD-1 mice, male Sprague Dawley rats, male beagle dogs, male cynomolgus monkeys, and from pooled white or African-American human donor samples (purchased commercially), at concentrations of 1 µM and 10 µM. […] The incubated samples were analyzed by LC-MS after extraction into acetonitrile.
A quality control analysis of fexinidazole was performed via 1H-NMR in DMSO and LC- […]
provided by the Swiss Tropical Institute (Basel, Switzerland).
Reagents and solvents were of analytical grade and obtained from Sigma-Aldrich (St. Louis, […]
Cryopreserved hepatocytes from the male CD1 mouse, lot CSI; male Sprague Dawley rat, lot LPL; male beagle dog, lot BWX; male cynomolgus monkey, lot EHH; and pooled human samples, lot MJI, were purchased from In Vitro Technologies Inc (Baltimore, Maryland, […]
5.4. In vitro Incubations
On the day of the experiment a 10 mM stock solution of fexinidazole in DMSO was prepared and, within 3 hours, aliquots of this freshly prepared solution, after suitable dilution, were added to the incubation matrix, to reach fexinidazole final concentrations of 1 and 10 µM. The final percentage of DMSO was 0.01% in the incubation samples for the […]
On the day of experiment, the cryopreserved hepatocytes were thawed following the detailed instructions provided by the supplier.
The number of viable cells was determined using a Trypan Blue exclusion method.
5.4.1. Intrinsic Clearance Study […]
µM with mouse, rat, dog, monkey and human hepatocytes (300000 cells/mL for the mouse and 1 million cells/mL for the other species) in a final incubation volume of 0.75 mL […]
Incubations were performed in duplicate in a 48-well plate under shaking. Sampling was performed using an automatic liquid handling system (Multiprobe II EX, Packard). At 0, 1, 5, 10, 15, 20, 30, 60 and 120 minutes, 50 µL aliquots of the incubates were taken, then 80 µL of ice-cold acetonitrile and 20 µL of 1 µM warfarin in acetonitrile (internal standard) were added, and samples centrifuged at 2000 rpm for 20 min. The supernatant was analyzed by LC-MS/MS. […]
the medium alone at t = 0 and 120 minutes.
For the determination of phase I and phase II activity of hepatocytes, 7-ethoxycoumarin (7-EC) 1 µM, and 7-hydroxycoumarin (7-HC) 30 µM were used as positive controls and incubated under the same conditions as fexinidazole. Aliquots of incubates were taken at 0, 10, 20, 30, 60 and 120 minutes and processed as fexinidazole samples.
5.4.2. Metabolite Profile Study
For metabolite profiling, fexinidazole was incubated at a concentration of 10 µM with mouse, rat, dog, monkey and human hepatocytes (300000 cells/mL for the mouse and 1 million cells/mL for the other species) in a final incubation volume of 2 mL Leibovitz L-15 […]
Aliquots of the incubation samples were taken at t = 0, 30 and 120 minutes; the metabolism was stopped by the addition of an equal volume of cold acetonitrile and the samples centrifuged at 1500 rpm for 20 min. The supernatant was stored at -20°C until analysis. Control incubations were performed with the compound in the medium alone […]
5.5. Analysis of Samples for Intrinsic Clearance Determination
The analysis of the samples for intrinsic clearance determination was performed by an LC-MS/MS method, using the following conditions:
HPLC Equipment and Conditions
HPLC system Agilent 1100 binary pump (Agilent, Palo Alto, USA)
Autosampler CTC Pal (Alfatech, San Jose, USA)
Analytical column Guard Column SB-C8 4.6 x 12.5 mm, 5 µm (Zorbax)
Column temperature ambient
Mobile phase A 10 mM ammonium formate pH 4.0: acetonitrile (95:5, v:v)
Mobile phase B 10 mM ammonium formate pH 4.0: acetonitrile (5:95, v:v) […]
Gradient conditions Step Total time (min) flow (µL/min) %A % B […]
MS Equipment and Conditions
Mass spectrometer API 4000 Triple Quadrupole (MDS-Sciex, Toronto, […]
Source Turbo Ion Spray (TIS)
Ion mode Positive for fexinidazole and 7-EC.
Negative for 7-HC, 7-HC sulphate and 7-HC glucuronide.

The nature of data set [1]: Dog 28-day toxicokinetics. It counts as in vivo. Particulars: both sexes, beagle, plasma, po. The method, then:
In the dog repeated-dose toxicokinetic study, fexinidazole was given orally by gavage once a day for 28 days to five (control and high dose) or three (low and mid dose) beagle dogs/sex/dose at the doses of 0 (control group), 50, 200, or 800 mg/kg/day. The control group received the vehicle alone (same as above). Systemic exposure to fexinidazole and of its sulfoxide and sulfone metabolites was evaluated on days 1, 14 and 28 in the same animals used for the toxicological study. Samples were taken at predose, and 30 min, 1, 2, 4, 8 and 24 h after dosing on days 1, 14, and 28, and in addition at 48 and 72 h after treatment on day 28.

The mark [2] stands for this setting: 50 mg/kg/day, 50 mg/kg/day po, day 1.
Setting [3] is: 50 mg/kg/day, 50 mg/kg/day po, day 1, read-out: AUC0-t(last).
Where [4] appears, read: 50 mg/kg/day, 50 mg/kg/day po, day 14.
[5] abbreviates: 50 mg/kg/day, 50 mg/kg/day po, day 14, read-out: AUC0-t(last).
Where [6] appears, read: 200 mg/kg/day, 200 mg/kg/day po, day 1.
Where [7] appears, read: 200 mg/kg/day, 200 mg/kg/day po, day 1, read-out: AUC0-t(last).
Where [8] appears, read: 200 mg/kg/day, 200 mg/kg/day po, day 14.
The mark [9] stands for this setting: 200 mg/kg/day, 200 mg/kg/day po, day 14, read-out: AUC0-t(last).
Where [10] appears, read: 800 mg/kg/day, 800 mg/kg/day po, day 1.
Where [11] appears, read: 800 mg/kg/day, 800 mg/kg/day po, day 1, read-out: AUC0-t(last).
The mark [12] stands for this setting: 800 mg/kg/day, 800 mg/kg/day po, day 14.
The mark [13] stands for this setting: 800 mg/kg/day, 800 mg/kg/day po, day 14, read-out: AUC0-t(last).

A word on the Cmax: it is the peak of the concentration-time curve. A word on the Tmax: it is the time from dosing to the highest level.

Where two headings read alike, the source gives them in different places.

`Cn1c([N+](=O)[O-])cnc1COc1ccc(S(C)(=O)=O)cc1` [Fexinidazole sulfone]: the “% of total drug related material” value was 10% in the data set on rat hepatocytes (30 min) and 32% with rat hepatocytes (120 min). Moreover, the Cmax was 8580 ± 2150 ng/mL in data set [1] (setting [2]); 7780 ± 2890 ng/mL in data set [1] (setting [4]); 17600 ± 2460 ng/mL in data set [1] (setting [6]); 21800 ± 3860 ng/mL in data set [1] (setting [8]); 36100 ± 7940 ng/mL in data set [1] (setting [10]); 36600 ± 6240 ng/mL in data set [1] (setting [12]). For the same compound, the time of peak concentration (Tmax) was 7.33 ± 1.63 h in data set [1] (setting [2]); 5.33 ± 2.07 h in data set [1] (setting [4]); 12.7 ± 8.91 h in data set [1] (setting [6]); 5.33 ± 2.07 h in data set [1] (setting [8]); 14.4 ± 8.26 h in data set [1] (setting [10]); 6.8 ± 1.93 h in data set [1] (setting [12]). In addition, the AUC(0-t) in data set [1] (setting [3]) was determined as 146000 ± 38300 ng·h/mL; in data set [1] (setting [5]) it was 126000 ± 59100 ng·h/mL; in data set [1] (setting [7]) it was 348000 ± 63900 ng·h/mL; in data set [1] (setting [9]), 384000 ± 49900 ng·h/mL; in data set [1] (setting [11]) it was 660000 ± 164000 ng·h/mL; in data set [1] (setting [13]), 653000 ± 118000 ng·h/mL.

As to `Cn1c([N+](=O)[O-])cnc1COc1ccc([S+](C)[O-])cc1` (stereo not drawn) [Fexinidazole sulfoxide], the “% of total drug related material” value amounted to 90% in the data set on rat hepatocytes (30 min), 68% with rat hepatocytes (120 min) and 32% in the data set on rat hepatocytes (t=0). For the same compound, the Cmax is 3760 ± 970 ng/mL in data set [1] (setting [2]); 2990 ± 980 ng/mL in data set [1] (setting [4]); 8120 ± 2660 ng/mL in data set [1] (setting [6]); 8990 ± 2830 ng/mL in data set [1] (setting [8]); 14500 ± 3950 ng/mL in data set [1] (setting [10]); 13600 ± 4090 ng/mL in data set [1] (setting [12]). The Tmax in data set [1] (setting [2]) was 1.17 ± 0.41 h; in data set [1] (setting [4]) it was 1.33 ± 0.52 h; in data set [1] (setting [6]) it was 1.25 ± 0.61 h; in data set [1] (setting [8]), 2 h; in data set [1] (setting [10]), 1.55 ± 0.6 h; in data set [1] (setting [12]) it was 1.6 ± 0.97 h. Besides, the AUC(0-t) in data set [1] (setting [3]) was determined as 19600 ± 5680 ng·h/mL; in data set [1] (setting [5]) it was 13600 ± 5990 ng·h/mL; in data set [1] (setting [7]) it was 51400 ± 14100 ng·h/mL; in data set [1] (setting [9]), 56700 ± 16600 ng·h/mL; in data set [1] (setting [11]) it was 112000 ± 31800 ng·h/mL; in data set [1] (setting [13]), 129000 ± 39800 ng·h/mL.

As for `CSc1ccc(OCc2ncc([N+](=O)[O-])n2C)cc1` [Fexinidazole, 1-methyl-2-((p-(methylthio)phenoxy)methyl)-5-nitroimidazole], in the data set on rat hepatocytes (t=0), the “% of total drug related material” value is given as 68%. Moreover, the Cmax in data set [1] (setting [2]) was found to be 40 ± 10 ng/mL; in data set [1] (setting [4]), 30 ± 10 ng/mL; in data set [1] (setting [6]), 70 ± 30 ng/mL; in data set [1] (setting [8]), 80 ± 10 ng/mL; in data set [1] (setting [10]) it was 140 ± 70 ng/mL; in data set [1] (setting [12]) it was 140 ± 50 ng/mL. The time of peak concentration (Tmax) in data set [1] (setting [2]) turned out to be 0.75 ± 0.61 h; in data set [1] (setting [4]), 1.08 ± 0.74 h; in data set [1] (setting [6]) it was 1 ± 0.55 h; in data set [1] (setting [8]) it was 1.5 ± 0.77 h; in data set [1] (setting [10]) it was 1.15 ± 0.47 h; in data set [1] (setting [12]), 1.2 ± 0.42 h. The AUC(0-t) in data set [1] (setting [3]) stood at 190 ± 130 ng·h/mL; in data set [1] (setting [5]), 150 ± 130 ng·h/mL; in data set [1] (setting [7]) it was 440 ± 90 ng·h/mL; in data set [1] (setting [9]), 450 ± 140 ng·h/mL; in data set [1] (setting [11]) it was 840 ± 320 ng·h/mL; in data set [1] (setting [13]) it was 1050 ± 300 ng·h/mL.
